{"source": "patent US11471458B2", "about": "“Diacylglycerol acyl transferase 2 inhibitor” (Pfizer Inc., priority 2019, dated 2022)", "key": {"[1]": {"test": "Determination of pKa (capillary electrophoresis, Analiza, Inc.)", "format": "physicochemical", "settings": "mean"}, "human hepatocytes [2]": {"system": "human hepatocytes", "test": "Intrinsic clearance in human hepatocytes (relay method)", "format": "in vitro ADME", "settings": "1 μM, 20 h total incubation, mean +/− standard deviation", "experimental": "For intrinsic clearance (CLint) measurement, hepatocyte relay method was used (Di, L., et al. 2012, Drug Metab. Dispos., 40, 1860-1865 and Di, L., et al. 2013, Drug Metab. Dispos., 41, 2018-2023). Cryopreserved human hepatocytes (Lot DCM from BioreclamationlVT) were used. Upon thawing, the hepatocytes were resuspended in Williams' medium E (custom formula number 91-5233EA; Gibco, Grand Island, N.Y.) supplemented with Hepes and Na2CO3. […] The plates were incubated at 37° C. with 95% air/5% CO2, 75% relative humidity for 4 h at 150 rpm in a humidified incubator. At time 0 and 4 h, 25 μL of hepatocyte suspension was removed from the incubation and added to 50 μL of ice-cold acetonitrile (containing metoprolol, indomethacin, and terfenadine as internal standards) to quench the reaction. The samples were centrifuged (Eppendorf, Hauppauge, N.Y.) at 3000 rpm (1439×g) for 10 min at room temperature, and 50 μL of supernatant was transferred to a clean plate, dried completely, and reconstituted before liquid chromatography/tandem mass spectrometry (LC-MS/MS) analysis. The remaining hepatocyte suspensions in the incubation plate were centrifuged (3000 rpm, 1439×g, 10 min, room temperature). The supernatant of 300 μL was transferred to a clean 24-well plate and stored at −80° C. until the next relay experiment. For the second relay experiment, the supernatant plates were warmed first to room temperature for 30 minutes, then to 37° C. for 30 min, and hepatocytes were added to the samples to give a final cell density of 0.5 million cells/mL. The plates were incubated at 37° C. for 4 h, sampled, and processed as described above. Five relays were performed to give a total incubation time of 20 h, with sampling points at (0, 4, 8, 12, 16 and 20 h). The concentrations of test compound determined at each time point by the LC-MS/MS analysis were used to calculate the intrinsic clearance."}, "human hepatocytes [3]": {"system": "human hepatocytes", "test": "High throughput determination of intrinsic clearance in human hepatocytes", "format": "in vitro ADME", "settings": "high throughput human hepatocyte assay; 0.5 million cells/mL, 1 μM test compound, 37° C.; mean +/− Std Dev", "experimental": "The incubation was carried out at 37° C. […] The samples were centrifuged (Eppendorf, Hauppauge, N.Y.) at 3000 rpm for 5 min at 4° C."}, "[4]": {"test": "Intrinsic clearance in human liver microsomes", "format": "in vitro ADME", "settings": "human liver microsome assay; 1 μM test compound, 0.806 mg/mL protein, NADPH, pH 7.4, 37° C.; mean +/− STD Dev", "experimental": "The incubations were conducted at 37° C. […] (Sorvall RC 3C Plus, Thermo Scientific, Waltham, Mass.)."}}}
{"smiles": "CCOc1cccnc1Oc1cncc(-c2ncc(C(=O)NC3(CO)CCOC3)cn2)c1", "note": "(single isomer, unassigned) [WO2018033832 Ex. 6b]", "values": [{"measurement": "Basic pKa (most basic pKa)", "setting": "[1]", "result": 2.4}, {"measurement": "CLint (+/− Std Dev), relay hepatocyte assay", "setting": "human hepatocytes [2]", "result": "2.9 +/− 0.057 μL/min/million cells"}, {"measurement": "CLint (μL/min/10^6 cells) (+/− Std Dev)", "setting": "human hepatocytes [3]", "result": "<3.3 +/− 0.49 μL/min/10^6 cells"}, {"measurement": "CLint (μL/min/mg) (+/− STD Dev)", "setting": "[4]", "result": "<11 ± 3.5", "unit": "µL/min/mg"}]}
